Test results reported in ChEMBL document CHEMBL1201862, “PubChem BioAssay data set” (2004).
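Cells were grown in 96-well plates and exposed to each compound for 48 hours at five concentrations; endpoints were interpolated linearly between bracketing concentrations, or set to the highest concentration if not reached. GI50 is the concentration that inhibits growth by half.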 Active and inactive are the calls of the source. Rule as the data show it: active = GI50 up to about 1.1 µM and inactive = higher.

Experiments:
Test in all cases: NCI tumour cell line growth inhibition, 48 h
SN12C = test system: SN12C
UACC-62 = test system: UACC-62
HCT-116 = test system: HCT-116
HOP-18 = test system: HOP-18
EKVX = test system: EKVX
UO-31 = test system: UO-31
RXF 631 = test system: RXF 631
OVCAR-4 = test system: OVCAR-4
KM12 = test system: KM12
DMS-273 = test system: DMS-273
RPMI-8226 = test system: RPMI-8226
OVCAR-5 = test system: OVCAR-5
SK-MEL-2 = test system: SK-MEL-2
LOX IMVI = test system: LOX IMVI
Malme-3M = test system: Malme-3M
RXF 393 = test system: RXF 393
DLD-1 = test system: DLD-1
SW-620 = test system: SW-620
A498 = test system: A498
SF-268 = test system: SF-268
SF-295 = test system: SF-295
KM-20L2 = test system: KM-20L2
OVCAR-8 = test system: OVCAR-8
SK-MEL-28 = test system: SK-MEL-28
SK-OV-3 = test system: SK-OV-3
A549 = test system: A549
COLO 205 = test system: COLO 205
786-0 = test system: 786-0
IGROV-1 = test system: IGROV-1
M14 = test system: M14
HCT-15 = test system: HCT-15
HL-60 = test system: HL-60
TK-10 = test system: TK-10
NCI-H460 = test system: NCI-H460
HOP-62 = test system: HOP-62
CCRF-CEM = test system: CCRF-CEM
SNB-78 = test system: SNB-78
HOP-92 = test system: HOP-92
K562 = test system: K562
DMS-114 = test system: DMS-114
HCC 2998 = test system: HCC 2998
M19-MEL = test system: M19-MEL
UACC-257 = test system: UACC-257
LXFL 529 = test system: LXFL 529
HT-29 = test system: HT-29
OVCAR-3 = test system: OVCAR-3
NCI-H522 = test system: NCI-H522
SNB-75 = test system: SNB-75
MOLT-4 = test system: MOLT-4
ACHN = test system: ACHN
SNB-19 = test system: SNB-19
U-251 = test system: U-251
SF-539 = test system: SF-539
NCI-H23 = test system: NCI-H23
BT-549 = test system: BT-549
T47D = test system: T47D
PC-3 = test system: PC-3
MDA-MB-435 = test system: MDA-MB-435
MDA-MB-231 = test system: MDA-MB-231
NCI/ADR-RES = test system: NCI/ADR-RES
Hs-578T = test system: Hs-578T
DU-145 = test system: DU-145
SK-MEL-5 = test system: SK-MEL-5
XF498 = test system: XF498
NCI-H226 = test system: NCI-H226
CAKI-1 = test system: CAKI-1
MCF7 = test system: MCF7
SR = test system: SR
MDA-N = test system: MDA-N

Measured: GI50

O/N=C1\CCCCC1C(NO)c1ccccc1 (configuration not stated)
> 100 µM: HCT-15
inactive: SN12C > 100 µM | UACC-62 > 100 µM | HCT-116 > 100 µM | HOP-18 > 100 µM | EKVX > 100 µM | UO-31 89.5 µM | RXF 631 > 100 µM | OVCAR-4 > 100 µM | KM12 > 100 µM | DMS-273 > 100 µM | RPMI-8226 > 100 µM | OVCAR-5 > 100 µM | SK-MEL-2 > 100 µM | LOX IMVI > 100 µM | Malme-3M > 100 µM | RXF 393 > 100 µM | DLD-1 > 100 µM | SW-620 > 100 µM | A498 > 100 µM | SF-268 98.9 µM | SF-295 > 100 µM | KM-20L2 > 100 µM | OVCAR-8 > 100 µM | SK-MEL-28 > 100 µM | SK-OV-3 > 100 µM | A549 > 100 µM | COLO 205 > 100 µM | 786-0 > 100 µM | IGROV-1 > 100 µM | M14 > 100 µM | HL-60 57.7 µM | TK-10 > 100 µM | NCI-H460 > 100 µM | HOP-62 > 100 µM | CCRF-CEM > 100 µM | SNB-78 > 100 µM | HOP-92 42.7 µM | K562 > 100 µM | DMS-114 67 µM | HCC 2998 > 100 µM | M19-MEL > 100 µM | UACC-257 > 100 µM | LXFL 529 > 100 µM | HT-29 > 100 µM | OVCAR-3 > 100 µM | NCI-H522 81.5 µM | SNB-75 23.7 µM | MOLT-4 69.3 µM | ACHN > 100 µM | SNB-19 > 100 µM | U-251 > 100 µM | SF-539 > 100 µM | NCI-H23 > 100 µM

Cc1c[nH]c2c(O)cc3c(c12)[C@H](CCl)CN3C(=O)c1cc2cc(NC(=O)Nc3ccc4[nH]c(C(=O)N5C[C@@H](CCl)c6c5cc(O)c5[nH]cc(C)c65)cc4c3)ccc2[nH]1 [BIZELESIN]
inactive: BT-549 24.9 µM | HCT-116 2.6 µM | EKVX > 100 µM | OVCAR-4 17.3 µM | KM12 12.1 µM | PC-3 33.9 µM | SK-MEL-2 34.4 µM | LOX IMVI 3.6 µM | Malme-3M 13.7 µM | RXF 393 > 100 µM | SW-620 17.4 µM | SF-268 2.82 µM | MDA-MB-231 26.5 µM | SF-295 6.35 µM | OVCAR-8 2.62 µM | SK-MEL-28 14.6 µM | A549 11 µM | COLO 205 8.91 µM | Hs-578T > 100 µM | 786-0 4.9 µM | IGROV-1 19.4 µM | DU-145 3.65 µM | SK-MEL-5 12.5 µM | CAKI-1 9.16 µM | HOP-92 48.5 µM | K562 23.9 µM | UACC-257 14.6 µM | MDA-N 22.2 µM | HT-29 27.1 µM | OVCAR-3 18.6 µM | SNB-19 28.5 µM | SF-539 1.24 µM | NCI-H23 1.9 µM
active: SN12C 0.378 µM | UACC-62 0.701 µM | T47D < 0.001 µM | HOP-18 < 0.001 µM | UO-31 < 0.001 µM | RXF 631 < 0.001 µM | RPMI-8226 0.00131 µM | OVCAR-5 0.00136 µM | MDA-MB-435 0.113 µM | A498 0.904 µM | KM-20L2 < 0.001 µM | SK-OV-3 0.141 µM | NCI/ADR-RES 0.071 µM | M14 0.631 µM | HL-60 0.00288 µM | NCI-H460 < 0.001 µM | XF498 < 0.001 µM | NCI-H226 0.183 µM | HOP-62 1.05 µM | CCRF-CEM 0.274 µM | SNB-78 < 0.001 µM | MCF7 0.578 µM | DMS-114 < 0.001 µM | HCC 2998 0.00109 µM | SR 0.0832 µM | M19-MEL < 0.001 µM | NCI-H522 < 0.001 µM | SNB-75 1.09 µM | MOLT-4 0.418 µM | ACHN 0.139 µM
